Results reported in PubChem BioAssay (NCI).
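Growth conditions: 96-well plates. Treatment: test compound, 48 hours, 5 concentrations. Analysis: linear interpolation between bracketing concentrations; unreached endpoints set to highest concentration. GI50: concentration for 50% inhibition of growth. At the TGI there is no net growth.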

Key:
Experiment in all cases: NCI anticancer screen, dose series, 48 h
MDA-MB-231 breast = tested on: MDA-MB-231 breast
NCI-H226 lung = tested on: NCI-H226 lung
CCRF-CEM leukemia = tested on: CCRF-CEM leukemia
TK-10 renal = tested on: TK-10 renal
NCI-H23 lung = tested on: NCI-H23 lung
MALME-3M melanoma = tested on: MALME-3M melanoma
NCI/ADR-RES ovarian = tested on: NCI/ADR-RES ovarian
SK-MEL-5 melanoma = tested on: SK-MEL-5 melanoma
UACC-257 melanoma = tested on: UACC-257 melanoma
MDA-MB-435 = tested on: MDA-MB-435
KM12 colon = tested on: KM12 colon
LOX IMVI melanoma = tested on: LOX IMVI melanoma
NCI-H460 lung = tested on: NCI-H460 lung
SF-295 CNS = tested on: SF-295 CNS
SR leukemia = tested on: SR leukemia
PC-3 prostate = tested on: PC-3 prostate
NCI-H522 lung = tested on: NCI-H522 lung
EKVX NSCLC = tested on: EKVX NSCLC
HCT-15 colon = tested on: HCT-15 colon
SW-620 colon = tested on: SW-620 colon
UO-31 renal = tested on: UO-31 renal
786-0 renal = tested on: 786-0 renal
SK-MEL-2 melanoma = tested on: SK-MEL-2 melanoma
SF-539 CNS = tested on: SF-539 CNS
CAKI-1 renal = tested on: CAKI-1 renal
RPMI-8226 leukemia = tested on: RPMI-8226 leukemia
ACHN renal = tested on: ACHN renal
SN12C renal = tested on: SN12C renal
OVCAR-8 ovarian = tested on: OVCAR-8 ovarian
OVCAR-3 ovarian = tested on: OVCAR-3 ovarian
IGROV1 ovarian = tested on: IGROV1 ovarian
HOP-92 NSCLC = tested on: HOP-92 NSCLC
RXF 393 renal = tested on: RXF 393 renal
OVCAR-5 ovarian = tested on: OVCAR-5 ovarian
M14 melanoma = tested on: M14 melanoma
UACC-62 melanoma = tested on: UACC-62 melanoma
SF-268 CNS = tested on: SF-268 CNS
MCF7 breast = tested on: MCF7 breast
U251 CNS = tested on: U251 CNS
OVCAR-4 ovarian = tested on: OVCAR-4 ovarian
HL-60(TB) leukemia = tested on: HL-60(TB) leukemia
DU-145 prostate = tested on: DU-145 prostate
HOP-62 NSCLC = tested on: HOP-62 NSCLC
MOLT-4 leukemia = tested on: MOLT-4 leukemia
HS 578T breast = tested on: HS 578T breast
A549 NSCLC = tested on: A549 NSCLC
HCT-116 colon = tested on: HCT-116 colon
A498 renal = tested on: A498 renal
HCC-2998 colon = tested on: HCC-2998 colon
BT-549 breast = tested on: BT-549 breast
SK-MEL-28 melanoma = tested on: SK-MEL-28 melanoma
HT29 colon = tested on: HT29 colon
SNB-19 CNS = tested on: SNB-19 CNS
SNB-75 CNS = tested on: SNB-75 CNS
T-47D breast = tested on: T-47D breast
SK-OV-3 ovarian = tested on: SK-OV-3 ovarian
COLO 205 colon = tested on: COLO 205 colon

COc1ccc(NC(=O)C2CCC(CNS(=O)(=O)c3ccccc3)CC2)cc1OC (centres undefined)
GI50 (MDA-MB-231 breast): 35.3 µM
TGI (MDA-MB-231 breast): > 100 µM
GI50 (NCI-H226 lung): > 100 µM
TGI (NCI-H226 lung): > 100 µM
GI50 (CCRF-CEM leukemia): > 100 µM
TGI (CCRF-CEM leukemia): > 100 µM
GI50 (TK-10 renal): > 100 µM
TGI (TK-10 renal): > 100 µM
GI50 (NCI-H23 lung): > 100 µM
TGI (NCI-H23 lung): > 100 µM
GI50 (MALME-3M melanoma): 40.3 µM
TGI (MALME-3M melanoma): > 100 µM
GI50 (NCI/ADR-RES ovarian): > 100 µM
TGI (NCI/ADR-RES ovarian): > 100 µM
GI50 (SK-MEL-5 melanoma): > 100 µM
TGI (SK-MEL-5 melanoma): > 100 µM
GI50 (UACC-257 melanoma): > 100 µM
TGI (UACC-257 melanoma): > 100 µM
GI50 (MDA-MB-435): > 100 µM
TGI (MDA-MB-435): > 100 µM
GI50 (KM12 colon): > 100 µM
TGI (KM12 colon): > 100 µM
GI50 (LOX IMVI melanoma): > 100 µM
TGI (LOX IMVI melanoma): > 100 µM
GI50 (NCI-H460 lung): > 100 µM
TGI (NCI-H460 lung): > 100 µM
GI50 (SF-295 CNS): > 100 µM
TGI (SF-295 CNS): > 100 µM
GI50 (SR leukemia): 0.542 µM
TGI (SR leukemia): > 100 µM
GI50 (PC-3 prostate): > 100 µM
TGI (PC-3 prostate): > 100 µM
GI50 (NCI-H522 lung): 60.9 µM
TGI (NCI-H522 lung): > 100 µM
GI50 (EKVX NSCLC): > 100 µM
TGI (EKVX NSCLC): > 100 µM
GI50 (HCT-15 colon): > 100 µM
TGI (HCT-15 colon): > 100 µM
GI50 (SW-620 colon): > 100 µM
TGI (SW-620 colon): > 100 µM
GI50 (UO-31 renal): > 100 µM
TGI (UO-31 renal): > 100 µM
GI50 (786-0 renal): > 100 µM
TGI (786-0 renal): > 100 µM
GI50 (SK-MEL-2 melanoma): > 100 µM
TGI (SK-MEL-2 melanoma): > 100 µM
GI50 (SF-539 CNS): > 100 µM
TGI (SF-539 CNS): > 100 µM
GI50 (CAKI-1 renal): > 100 µM
TGI (CAKI-1 renal): > 100 µM
GI50 (RPMI-8226 leukemia): > 100 µM
TGI (RPMI-8226 leukemia): > 100 µM
GI50 (ACHN renal): > 100 µM
TGI (ACHN renal): > 100 µM
GI50 (SN12C renal): 2.69 µM
TGI (SN12C renal): 69.5 µM
GI50 (OVCAR-8 ovarian): > 100 µM
TGI (OVCAR-8 ovarian): > 100 µM
GI50 (OVCAR-3 ovarian): > 100 µM
TGI (OVCAR-3 ovarian): > 100 µM
GI50 (IGROV1 ovarian): > 100 µM
TGI (IGROV1 ovarian): > 100 µM
GI50 (HOP-92 NSCLC): > 100 µM
TGI (HOP-92 NSCLC): > 100 µM
GI50 (RXF 393 renal): > 100 µM
TGI (RXF 393 renal): > 100 µM
GI50 (OVCAR-5 ovarian): > 100 µM
TGI (OVCAR-5 ovarian): > 100 µM
GI50 (M14 melanoma): > 100 µM
TGI (M14 melanoma): > 100 µM
GI50 (UACC-62 melanoma): 54.6 µM
TGI (UACC-62 melanoma): > 100 µM
GI50 (SF-268 CNS): 74.2 µM
TGI (SF-268 CNS): > 100 µM
GI50 (MCF7 breast): > 100 µM
TGI (MCF7 breast): > 100 µM
GI50 (U251 CNS): 54 µM
TGI (U251 CNS): > 100 µM
GI50 (OVCAR-4 ovarian): > 100 µM
TGI (OVCAR-4 ovarian): > 100 µM
GI50 (HL-60(TB) leukemia): > 100 µM
TGI (HL-60(TB) leukemia): > 100 µM
GI50 (DU-145 prostate): > 100 µM
TGI (DU-145 prostate): > 100 µM
GI50 (HOP-62 NSCLC): 26.8 µM
TGI (HOP-62 NSCLC): 86.8 µM
GI50 (MOLT-4 leukemia): > 100 µM
TGI (MOLT-4 leukemia): > 100 µM
GI50 (HS 578T breast): 76.5 µM
TGI (HS 578T breast): > 100 µM
GI50 (A549 NSCLC): > 100 µM
TGI (A549 NSCLC): > 100 µM
GI50 (HCT-116 colon): > 100 µM
TGI (HCT-116 colon): > 100 µM
GI50 (A498 renal): > 100 µM
TGI (A498 renal): > 100 µM
GI50 (HCC-2998 colon): > 100 µM
TGI (HCC-2998 colon): > 100 µM
GI50 (BT-549 breast): > 100 µM
TGI (BT-549 breast): > 100 µM

CC(NC(=O)C(N)CCC(=O)O)C(=O)NCP(=O)(O)O (centres undefined)
GI50 (M14 melanoma): 15.9 µg/mL

O=[N+]([O-])c1cccc2nc3ccccc3c(NCCCNc3c4ccccc4nc4cccc([N+](=O)[O-])c34)c12
TGI (MDA-MB-231 breast): 0.0311 µM
TGI (NCI-H226 lung): 11.7 µM
TGI (CCRF-CEM leukemia): 0.162 µM
TGI (TK-10 renal): < 0.01 µM
TGI (NCI-H23 lung): 0.248 µM
TGI (MALME-3M melanoma): 0.329 µM
TGI (NCI/ADR-RES ovarian): 1.19 µM
TGI (SK-MEL-5 melanoma): 0.0221 µM
TGI (UACC-257 melanoma): 0.329 µM
TGI (MDA-MB-435): 0.141 µM
TGI (KM12 colon): 0.073 µM
TGI (LOX IMVI melanoma): > 100 µM
TGI (SK-MEL-28 melanoma): 0.181 µM
TGI (HT29 colon): < 0.01 µM
TGI (SF-295 CNS): 1.5 µM
TGI (PC-3 prostate): 0.143 µM
TGI (NCI-H522 lung): 0.121 µM
TGI (EKVX NSCLC): 0.0975 µM
TGI (SW-620 colon): > 100 µM
TGI (UO-31 renal): 0.143 µM
TGI (786-0 renal): < 0.01 µM
TGI (SNB-19 CNS): 0.163 µM
TGI (SK-MEL-2 melanoma): 0.13 µM
TGI (SF-539 CNS): 0.149 µM
TGI (CAKI-1 renal): 0.118 µM
TGI (ACHN renal): 0.0135 µM
TGI (SN12C renal): 0.0976 µM
TGI (OVCAR-8 ovarian): 0.131 µM
TGI (OVCAR-3 ovarian): 0.0906 µM
TGI (IGROV1 ovarian): 0.967 µM
TGI (HOP-92 NSCLC): < 0.01 µM
TGI (RXF 393 renal): < 0.01 µM
TGI (M14 melanoma): 0.0744 µM
TGI (UACC-62 melanoma): 0.245 µM
TGI (SF-268 CNS): 0.0387 µM
TGI (SNB-75 CNS): 0.277 µM
TGI (U251 CNS): 0.181 µM
TGI (OVCAR-4 ovarian): 0.302 µM
TGI (HL-60(TB) leukemia): 0.328 µM
TGI (T-47D breast): 0.407 µM
TGI (HOP-62 NSCLC): 0.0844 µM
TGI (MOLT-4 leukemia): 0.0972 µM
TGI (SK-OV-3 ovarian): 1.59 µM
TGI (COLO 205 colon): < 0.01 µM
TGI (A549 NSCLC): 0.166 µM
TGI (HCT-116 colon): < 0.01 µM
TGI (HCC-2998 colon): 0.0223 µM
TGI (BT-549 breast): 0.441 µM
